{"source": "patent US20170252373A1", "about": "“COMBINATION THERAPY FOR THE TREATMENT OF HAIR LOSS” (priority 2016, published 2017)", "origin": "cited, not measured here", "system": "male-pattern hair loss", "details": "within three months of starting treatment; also at 24 and 48 months with continued use", "data": [{"smiles": "CC(C)(C)NC(=O)[C@H]1CC[C@H]2[C@@H]3CC[C@H]4NC(=O)C=C[C@]4(C)[C@H]3CC[C@]12C", "note": "[finasteride]", "values": [{"measurement": "hair on the scalp", "result": "Increased hair on the scalp"}]}]}
